Results from article PMC6158578, “Optimization and Lead Selection of Benzothiazole Amide Analogs Toward a Novel Antimycobacterial Agent” (Frontiers in Microbiology, 2018).
Values after ≈ are worked out from the molar mass of the structure shown. Like-named read-outs stand apart in the source and are kept apart here.

Key:
[1] = format: cell-based; details: for Interpretation of checkerboard synergy testing: antibiotic in combination with CRS400393 (benzothiazole amides)
[2] = test system: M. fortuitum (n = 11) clinical isolates; assay: MIC against rapid-growing NTM clinical isolates; format: cell-based; details: M. fortuitum (n = 11); for MIC90: Mycolicibacterium fortuitum, read-out: MIC90
[3] = test system: M. chelonae (n = 11) clinical isolates; assay: MIC against rapid-growing NTM clinical isolates; format: cell-based; details: M. chelonae (n = 11); for MIC90: Mycobacteroides chelonae, read-out: MIC90
[4] = test system: M. abscessus (n = 20) clinical isolates; assay: MIC against rapid-growing NTM clinical isolates; format: cell-based; details: Mycobacteroides abscessus; M. abscessus (n = 20); read-out: MIC90
[5] = test system: M. abscessus 1; assay: MIC in MHB versus 7H9+OADC; format: cell-based
[6] = test system: M. abscessus 79; assay: MIC in MHB versus 7H9+OADC; format: cell-based
[7] = test system: Other NTM (n = 12); assay: MIC against rapid-growing NTM clinical isolates; format: cell-based; details: Other NTM (n = 12); for MIC90: read-out: MIC90
[8] = test system: M. abscessus 21; assay: MIC in MHB versus 7H9+OADC; format: cell-based
[9] = test system: Mabs 21
[10] = antibiotic in checkerboard combination with CRS400393

Compound	FIC Index [1, 10]	Interpretation of checkerboard synergy testing [1]	MIC90 [2]	MIC90 [3]	MIC90 [4]	MIC90 [7]	also measured
NC[C@H]1O[C@H](O[C@H]2[C@H](O)[C@@H](O[C@H]3O[C@H](CO)[C@@H](O)[C@H](N)[C@H]3O)[C@H](N)C[C@@H]2N)[C@H](N)C[C@@H]1O [Tobramycin]	0.75	additive	–	–	–	–	–
COc1nc2ccc(Br)cc2cc1[C@@H](c1ccccc1)[C@@](O)(CCN(C)C)c1cccc2ccccc12 [Bedaquiline]	2	indifferent	–	–	–	–	Interpretation of checkerboard synergy testing ([1]; listed as bedaquiline): indifference
Cc1cc(NS(=O)(=O)c2ccc(N)cc2)no1 [Sulfamethoxazole]	–	–	–	–	–	–	FIC Index [1]: 0.56
C[C@H]1c2cccc(O)c2C(=O)C2=C(O)[C@]3(O)C(=O)C(C(N)=O)=C(O)[C@@H](N(C)C)[C@@H]3[C@@H](O)[C@@H]21 [Doxycycline]	2	indifferent	–	–	–	–	Interpretation of checkerboard synergy testing ([1]; listed as doxycycline): indifference
CC(C)/N=c1\cc2n(-c3ccc(Cl)cc3)c3ccccc3nc-2cc1Nc1ccc(Cl)cc1 [Clofazimine]	0.52	additive	–	–	–	–	–
NCC[C@H](O)C(=O)N[C@@H]1C[C@H](N)[C@@H](O[C@H]2O[C@H](CN)[C@@H](O)[C@H](O)[C@H]2O)[C@H](O)[C@H]1O[C@H]1O[C@H](CO)[C@@H](O)[C@H](N)[C@H]1O [Amikacin, reference compound]	1	additive	2 µg/mL (≈ 3.42 µM)	> 16 µg/mL	16 µg/mL (≈ 27.3 µM)	16 µg/mL (≈ 27.3 µM)	MIC range [2]: 0.5 to 4 µg/mL; MIC ([5]; M. abscessus 1, 7H9 + OADC (5 mg/mL albumin)): 16 µg/mL; MIC ([5]; M. abscessus 1, MHB): 8 µg/mL (≈ 13.7 µM); MIC ([6]; M. abscessus 79, 7H9 + OADC (5 mg/mL albumin)): 4 µg/mL; MIC ([6]; M. abscessus 79, MHB): 2 µg/mL (≈ 3.42 µM); MIC range [7]: 0.5 to 16 µg/mL; MIC ([8]; M. abscessus 21, 7H9 + OADC (5 mg/mL albumin)): 4 µg/mL; MIC ([8]; M. abscessus 21, MHB): 2 µg/mL (≈ 3.42 µM)
CC[C@H]1OC(=O)[C@H](C)[C@@H](O[C@H]2C[C@@](C)(OC)[C@@H](O)[C@H](C)O2)[C@H](C)[C@@H](O[C@@H]2O[C@H](C)C[C@H](N(C)C)[C@H]2O)[C@](C)(O)C[C@@H](C)CN(C)[C@H](C)[C@@H](O)[C@]1(C)O [Azithromycin, reference compound]	1	additive	> 8 µg/mL	0.5 µg/mL (≈ 0.668 µM)	> 8 µg/mL	> 8 µg/mL	MIC range [3]: 0.12 to 0.5 µg/mL; lung histology ([9]; after 4 weeks of treatment): only minimal pathologic evidence of inflammatory infiltrates; reduction of lung CFU compared to the untreated group ([9]; oral gavage 100 mg/kg, 4 weeks): 0.38 Log10 CFU
CO[C@@]1(NC(=O)Cc2cccs2)C(=O)N2C(C(=O)O)=C(COC(N)=O)CS[C@@H]21 [Cefoxitin]	0.56	additive	–	–	–	–	–
CC(=O)NC[C@H]1CN(c2ccc(N3CCOCC3)c(F)c2)C(=O)O1 [Linezolid, reference compound]	–	–	> 8 µg/mL	8 µg/mL (≈ 23.7 µM)	> 8 µg/mL	> 8 µg/mL	MIC range [3]: 1 to 8 µg/mL; FIC Index [1]: 0.56
